Legend:
Format in all cases: in vivo
[1] = test system: ECHINOCHLOA CRUS-GALLI, (L) BEAU; assay: Postemergence herbicidal evaluation, ECHCG (Barnyardgrass); set-up: key to ECHCG rating / Herbicidal effect rating, ECHCG / ECHCG: 0-9 visual rating scale vs untreated control
Outline: (§1)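 Two-week-old seedlings sprayed with compound in 50/50 acetone/water plus 0.5% TWEEN 20 at about 0.125–0.500 kg/ha via nozzle at 40 psi. Kept in greenhouse; rated visually 4–5 weeks after treatment on a 0–9 scale versus untreated control, averaging repeat tests.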

[2] = test system: AMBROSIA ARTEMISIIFOLIA, L.; assay: Postemergence herbicidal evaluation, AMBEL (Ragweed, Common)
Outline: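 Common ragweed (Ambrosia artemisiifolia) seedlings were raised in jiffy flats for roughly two weeks, then sprayed postemergence through a nozzle at 40 psi with the test compound dispersed in 50/50 acetone/water carrying 0.5% TWEEN®20. The plants were kept on greenhouse benches under conventional care. Four to five weeks later, injury was rated visually on a 0-9 scale, and repeat tests were averaged.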

[3] = test system: ABUTILON THEOPHRASTI, MEDIC.; assay: Postemergence herbicidal evaluation, ABUTH (Velvetleaf)
Outline: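 Velvetleaf (Abutilon theophrasti) seedlings were raised in jiffy flats for about two weeks and then sprayed postemergence. The test compound was dispersed in a 50/50 acetone/water mixture containing 0.5% TWEEN®20 and applied through a nozzle operating at 40 psi. Plants were kept on greenhouse benches and rated 0-9 four to five weeks after treatment.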

IPOMOEA SPP. = assay: Postemergence herbicidal evaluation, IPOSS (Morningglory spp.)
Outline: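 Seedlings of morningglory (Ipomoea spp.) were raised in jiffy flats for roughly two weeks. They were then sprayed postemergence through a nozzle at 40 psi with test compound dispersed in 50/50 acetone/water containing 0.5% TWEEN®20 surfactant. Plants were kept on greenhouse benches under standard care and visually rated 0-9 against controls four to five weeks after treatment.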

CHENOPODIUM ALBUM, L. = assay: Postemergence herbicidal evaluation, CHEAL (Lambsquarters, Common)
Outline: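 Seedlings of common lambsquarters (Chenopodium album) were raised in jiffy flats for roughly two weeks, then sprayed postemergence through a nozzle at 40 psi with test compound dispersed in 50/50 acetone/water containing 0.5% TWEEN®20 surfactant. Plants were kept on greenhouse benches under standard care and rated visually on a 0-9 scale versus controls.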

GALIUM APARINE = assay: Postemergence herbicidal evaluation, GALAP (Galium); set-up: key to GALAP rating / Herbicidal effect rating, GALAP / GALAP: 0-9 visual rating scale vs untreated control
Outline: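 Galium (GALAP) seedlings were raised in jiffy flats for about two weeks, then sprayed with test compounds dispersed in 50/50 acetone/water containing 0.5% TWEEN®20, delivered through a nozzle at 40 psi. Plants were kept on greenhouse benches and visually rated 0-9 against a control four to five weeks later; repeat tests were averaged.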

[4] = test system: SETARIA VIRIDIS, (L) BEAU; assay: Postemergence herbicidal evaluation, SETVI (Foxtail, Green); set-up: key to SETVI rating / Herbicidal effect rating, SETVI / SETVI: 0-9 visual rating scale vs untreated control
Outline: as §1

CASSIA OBTUSIFOLIA, L. = assay: Postemergence herbicidal evaluation, CASOB (Sicklepod); set-up: key to CASOB rating / Herbicidal effect rating, CASOB / CASOB: 0-9 visual rating scale vs untreated control
Outline: as §1

[5] = test system: TRITICUM AESTIVUM, CV. APOLLO; assay: Postemergence herbicidal evaluation, TRZAWO (Wheat, Winter, CV. APOLLO)
Outline: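 Wheat seedlings, raised in jiffy flats for roughly two weeks, were sprayed postemergence with test compound dispersed in a 50/50 acetone/water mixture containing 0.5% TWEEN®20 surfactant, delivered through a nozzle at 40 psi. Plants were then kept on greenhouse benches under conventional care. Four to five weeks after treatment they were rated visually on a 0-9 scale against an untreated control, and ratings from repeated tests were averaged.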

ZEA MAYS L. = assay: Postemergence herbicidal evaluation, ZEAMX (Corn, Field)
Outline: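 Corn seedlings were raised in jiffy flats for roughly two weeks, then sprayed postemergence with the test material dispersed in 50/50 acetone/water containing 0.5% TWEEN®20 surfactant, using a nozzle at 40 psi. Plants were kept on greenhouse benches under standard care and visually rated on a 0-9 scale four to five weeks after treatment.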

[6] = test system: ORYZA SATIVA, L. TEBONNET; assay: Rice tolerance to post-transplant applications under flooded paddy conditions, ORYSAT (Rice, Tebonnet); details: for Herbicidal effect rating, ORYSAT: post-transplant rice, 3-4 weeks after treatment; for ORYSAT: post-transplanted rice
Outline: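 Two ten-day-old Tebonnet rice seedlings transplanted into silt loam, flooded 1.5–3 cm; three days later the water surface treated with compounds in acetone/water at about 0.5, 0.25, 0.125 and 0.063 kg/ha. Visual 0–9 injury rating versus control after 3–4 weeks in greenhouse.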

Methyl 3-{2-[(2-chloro-α,α,α,-trifluoro-p-tolyl)oxy]phenyl}tetrahydro-5-methyl-2,4,6-trioxo-s-triazine-1(2H)-acetate [Compound 28]
0.0: ECHCG ([1]; Rate 0.063 kg/ha) | ECHCG ([1]; Rate 0.125 kg/ha) | ECHCG rating ([1]; Rate 0.125 kg/ha) | ECHCG ([1]; Rate 0.250 kg/ha) | ECHCG rating ([1]; Rate 0.250 kg/ha) | Herbicidal effect rating, ORYSAT ([6]; 0.063 kg/ha)
7.0: AMBEL ([2]; Rate 0.500 kg/ha) | AMBEL rating ([2]; Rate 0.500 kg/ha) | ABUTH ([3]; Rate 0.250 kg/ha) | ABUTH rating ([3]; Rate 0.250 kg/ha)
2.5: ZEAMX (ZEA MAYS L.; Rate 0.125 kg/ha) | ZEAMX rating (ZEA MAYS L.; Rate 0.125 kg/ha)
4.5: GALAP (GALIUM APARINE; Rate 0.500 kg/ha) | GALAP rating (GALIUM APARINE; Rate 0.500 kg/ha) | ZEAMX (ZEA MAYS L.; Rate 0.500 kg/ha) | ZEAMX rating (ZEA MAYS L.; Rate 0.500 kg/ha)
1.0: SETVI ([4]; Rate 0.063 kg/ha) | SETVI ([4]; Rate 0.125 kg/ha) | SETVI rating ([4]; Rate 0.125 kg/ha) | Herbicidal effect rating, ORYSAT ([6]; 0.125 kg/ha)
6.0: AMBEL ([2]; Rate 0.250 kg/ha) | AMBEL rating ([2]; Rate 0.250 kg/ha) | ABUTH ([3]; Rate 0.125 kg/ha) | ABUTH rating ([3]; Rate 0.125 kg/ha) | IPOSS (IPOMOEA SPP.; Rate 0.063 kg/ha) | IPOSS (IPOMOEA SPP.; Rate 0.125 kg/ha) | IPOSS rating (IPOMOEA SPP.; Rate 0.125 kg/ha) | CHEAL (CHENOPODIUM ALBUM, L.; Rate 0.063 kg/ha) | CHEAL (CHENOPODIUM ALBUM, L.; Rate 0.125 kg/ha) | CHEAL rating (CHENOPODIUM ALBUM, L.; Rate 0.125 kg/ha) | GALAP (GALIUM APARINE; Rate 0.063 kg/ha) | CASOB (CASSIA OBTUSIFOLIA, L.; Rate 0.250 kg/ha) | CASOB rating (CASSIA OBTUSIFOLIA, L.; Rate 0.250 kg/ha)
5.0: GALAP (GALIUM APARINE; Rate 0.250 kg/ha) | GALAP rating (GALIUM APARINE; Rate 0.250 kg/ha) | CASOB (CASSIA OBTUSIFOLIA, L.; Rate 0.125 kg/ha) | CASOB rating (CASSIA OBTUSIFOLIA, L.; Rate 0.125 kg/ha)
1.5: TRZAWO ([5]; Rate 0.063 kg/ha) | ZEAMX (ZEA MAYS L.; Rate 0.063 kg/ha)
4.0: AMBEL ([2]; Rate 0.125 kg/ha) | AMBEL rating ([2]; Rate 0.125 kg/ha) | ABUTH ([3]; Rate 0.063 kg/ha) | GALAP (GALIUM APARINE; Rate 0.125 kg/ha) | GALAP rating (GALIUM APARINE; Rate 0.125 kg/ha) | SETVI ([4]; Rate 0.500 kg/ha) | SETVI rating ([4]; Rate 0.500 kg/ha) | ZEAMX (ZEA MAYS L.; Rate 0.250 kg/ha) | ZEAMX rating (ZEA MAYS L.; Rate 0.250 kg/ha)
3.0: AMBEL ([2]; Rate 0.063 kg/ha) | CASOB (CASSIA OBTUSIFOLIA, L.; Rate 0.063 kg/ha) | ORYSAT ([6]; Rate 1.000 kg/ha)
9.0: ABUTH ([3]; Rate 0.500 kg/ha) | ABUTH rating ([3]; Rate 0.500 kg/ha) | IPOSS (IPOMOEA SPP.; Rate 0.500 kg/ha) | IPOSS rating (IPOMOEA SPP.; Rate 0.500 kg/ha) | CHEAL (CHENOPODIUM ALBUM, L.; Rate 0.500 kg/ha) | CHEAL rating (CHENOPODIUM ALBUM, L.; Rate 0.500 kg/ha)
6.5: CASOB (CASSIA OBTUSIFOLIA, L.; Rate 0.500 kg/ha) | CASOB rating (CASSIA OBTUSIFOLIA, L.; Rate 0.500 kg/ha)
2.0: ECHCG ([1]; Rate 0.500 kg/ha) | ECHCG rating ([1]; Rate 0.500 kg/ha) | SETVI ([4]; Rate 0.250 kg/ha) | SETVI rating ([4]; Rate 0.250 kg/ha) | TRZAWO ([5]; Rate 0.125 kg/ha) | TRZAWO rating ([5]; Rate 0.125 kg/ha) | TRZAWO ([5]; Rate 0.250 kg/ha) | TRZAWO rating ([5]; Rate 0.250 kg/ha) | TRZAWO ([5]; Rate 0.500 kg/ha) | TRZAWO rating ([5]; Rate 0.500 kg/ha) | Herbicidal effect rating, ORYSAT ([6]; 0.250 kg/ha) | Herbicidal effect rating, ORYSAT ([6]; 0.500 kg/ha) | ORYSAT ([6]; Rate 0.250 kg/ha) | ORYSAT ([6]; Rate 0.500 kg/ha)
8.0: IPOSS (IPOMOEA SPP.; Rate 0.250 kg/ha) | IPOSS rating (IPOMOEA SPP.; Rate 0.250 kg/ha) | CHEAL (CHENOPODIUM ALBUM, L.; Rate 0.250 kg/ha) | CHEAL rating (CHENOPODIUM ALBUM, L.; Rate 0.250 kg/ha)
